The test system of one series is Mcl-1 protein. As to the kind of experiment: Western blot of Mcl-1 protein expression in SKOV3 cells. Conditions: FIG. 11B. The series is classed as cell-based, human. As for the experimental part:
The siRNA duplexes were transfected according to the recommended procedure by using the Oligofectamine Reagent and Opti-MEM medium (INVITROGEN LIFE TECHNOLOGIES). 30-40% confluent cells were transfected in 25 cm^2 flasks with different concentrations of siXL1, siRNA Mcl-1 or siRNA control and incubated at 37° C., 5% CO2 for 4 hours. Next, 20% fetal bovin serum was added to reach a final concentration of 10% foetal bovin serum in the 25 cm^2 flask.
Cells were rinsed with ice cold PBS and lysed in 150 mM NaCl, 50 mM Tris-HCl pH 8, 1% Triton X100, 4 mM PMSF, 2 mM Aprotinin, 5 mM EDTA, 10 mM NaF, 10 mM NaPPi, 1 mM Na3VO4 for 30 min on ice. Lysates were clarified by centrifugation at 10000 g for 10 min at 4° C. and protein concentrations were determined using the Bradford assay (BIO-RAD). Equal amounts of total cellular protein (20 μg) were resolved in a Bis-tris-HCL buffered (pH 6.4) 4-12% polyacrylamide gel (NuPAGE® Novex® 4-12% Bis-tris gel, INVITROGEN) for 35 min at 200V and electrophoretically transferred on a PVDF membrane (MILLIPORE) for 75 min at 30V. The membrane was blocked for 1 hour at room temperature in T-TBS (132 mM NaCl, 20 mM Tris-HCl pH 7.6, 0.05% Tween 20) supplemented with 5% non-fat dry milk. […] After 3 washes with T-TBS and one with TBS, the immunoreactivity was detected by enhanced chemiluminescence (ECL kit, AMERSHAM).
On the technique in general: A western blot detects proteins with antibodies after separation by electrophoresis.

The subject of series [1] is intraperitoneal SKOV3 human ovarian adenocarcinoma. In words: Survival of nude mice bearing intraperitoneal SKOV3 tumours. The class given is in vivo, Swiss/nude mice. As for the experimental part: 4-week-old female Swiss/nude mice were obtained from CHARLES-RIVER LABORATORIES and maintained in a pathogen-free environment. The mice were fed a standard laboratory diet and tap water ad libitum and kept a 23±1° C. with a 12 h light/dark cycle. Animal experiments in the present study were performed in compliance with the guidelines of the Federation of european laboratory animal science associations.
6-8 weeks old mice were implanted intraperitoneally with 2×10^7 ovarian adenocarcinoma SKOV3 cells. As described previously, this model reflects the i.p growth pattern of advanced ovarian cancer (Louis et al, Cancer Gene Therapy, 2006, 13, 367-374).
Twenty one days after tumour implantation, mice were allocated to one of the eight treatment groups (10 mice per group) summarized in Table II: • Group 1 comprised untreated animals. • Group 2 received intraperitoneal injection of 4 μg/kg cisplatin in 1 ml 0.9% NaCl solution. • Group 3 received intraperitoneal injection of 25 μg/kg control siRNA in 1 ml 0.9% NaCl. • Group 4 received intraperitoneal injection of 25 μg/kg Bcl-XL siRNA in 1 ml 0.9% NaCl. • Group 5 received intraperitoneal injection of 25 μg/kg control siRNA in 1 ml 0.9% NaCl and the following day 4 μg/kg of cisplatin in 1 ml 0.9% NaCl solution. • Group 6 received intraperitoneal injection of 4 μg/kg of cisplatin in 1 ml 0.9% NaCl solution and the following day 25 μg/kg control siRNA in 1 ml 0.9% NaCl. • Group 7 received intraperitoneal injection of 25 μg/kg Bcl-XL siRNA in 1 ml 0.9% NaCl and the following day 4 μg/kg of cisplatin in 1 ml 0.9% NaCl solution. • Group 8 received intraperitoneal injection of 4 μg/kg of cisplatin in 1 ml 0.9% NaCl solution and the following day 25 μg/kg Bcl-XL siRNA in 1 ml 0.9% NaCl.
The same treatment was repeated one month later. Mice were killed and autopsied when considered as moribund. Organs and tumours were formalin-fixed and paraffin-embedded for histological examination. At the end of the experiment, all surviving animals were sacrificed, and histological examination was performed in order to detect residual tumour nodes.

For another series, the system named is Bcl-XL protein. In words: Immunohistochemical analysis of Bcl-XL protein in SKOV3 peritoneal tumour nodes of mice. The class given is in vivo, human. Conditions: naked siXL1 5, 25 or 100 μg/kg, 3 days after injection. As to the method: […] […] The solution was quickly homogenized and left for 15 min at room temperature. It was injected intraperitoneally in mice as a 0.5 ml 5% glucose solution.
[…] Mice were killed 3 days after transfection and each organ (kidney, liver, spleen, pancreas, ovary, peritoneum, diaphragm, lung, heart and skeletal muscle) was washed with saline solution. Parts of each organs were either frozen in liquid nitrogen and stored at −80° C. for RT-PCR and western blot analysis, or formalin-fixed and paraffin-embedded for histological examination and immunohistochemical analysis.
Immunohistochemical staining was performed on paraffin-embedded material. To perform immunostaining, 4 μm-thick sections were dewaxed, rehydrated and treated 30 minutes by high-temperature-heating antigen retrieval technique in citrate buffer 0.1M pH6 to unmask epitopes. Sections were incubated 1 hour at room temperature with polyclonal antibody anti-Bcl-XL/S (S18) obtained from Santa Cruz (TEBU-BIO) and diluted 1:50. After washes, slides were incubated with Rabbit IgG Vectastain ABC Kit (VECTOR, ABCYS) according to the manufacturer instructions.

Take “siXL1: double-stranded siRNA blocking Bcl-XL expression; sense 5′-auuggugagucggaucgcatt-3′ (SEQ ID NO: 5), anti-sense 5′-ugcgauccgacucaccaautt-3′ (SEQ ID NO: 6) (sense AUUGGUGAGUCGGAUCGCATT; antisense UGCGAUCCGACUCACCAAUTT; chemistry not given here)”: in the series with Mcl-1 protein, the “dose dependence of extinction of Mcl-1 protein expression” value is recorded as “dose-dependent”. Moreover, in series [1] (group treated with siXL1), the “mice that die in the same interval as the control mice” value is listed as 50% and the “mice with no residual tumors at autopsy after 150 days” value is 50%. Moreover, in series [1] (low dose, mice implanted with human chemoresistant tumor cells), the “duration of complete regression of the pre-established tumor after tumor cells implantation” value was “at least 5 months”. The “survival at 130 days” value in series [1] (naked siRNA 25 μg/kg intraperitoneal, 2 injections at 28 days interval, FIG. 15) came out at 60%. In addition, in series [1] (siRNA 25 μg/kg, cisplatin 4 μg/kg intraperitoneal, treatment repeated one month later, FIG. 15), the “effect on mice survival” value is listed as “increases considerably”. For the same substance, the “Bcl-XL labelling intensity in tumour nodes” value in the series on Bcl-XL protein was “decreases as the siXL1 dose increases”.

These data come from patent publication US8193333B2, “Cancer therapy using Bcl-Xl-specific siNA” (Centre Regional de Lutte Contre le Cancer-Centre Francois …, priority 2006, dated 2012).
